≈ marks a conversion by molar mass, not a printed value.
What was measured:
[1] = system: human umbilical vein endothelial cells (HUVEC); assay: Survival of HUVEC at 80% and 30% confluency; assay type: cell-based; details: 2.5 μM; for Mean survival, percentage of control-treated cells: HUVEC, n=3
Protocol: (§1) All cells were treated with 2.5 μM NVX-207. Percentage (means±S.E., n=3) of control-treated cells are given. […] Mean survival in NVX-207 treated fibroblasts at 80% confluency was 92% (S.E.=3.8) versus 3.8% mean survival (S.E.=0.4) at 30% confluency. […] HUVECs, keratinocytes and fibroblast cells were obtained from Lonza GmbH (Wuppertal, Germany) and cultivated according to the manufacturer's instructions.
(§2) Human umbilical vein endothelial cells (HUVEC), keratinocytes and fibroblast cells were obtained from Lonza GmbH (Wuppertal, Germany) and cultivated according to the manufacturer's instructions. […] The IC50 value of betulinic acid in human keratinocytes was recently determined to be ˜5.0 μg/ml (Tino Galgon al., Exp Dermatol. 14:736-43, 2005), while the IC50 of NVX-207 is ˜0.7 µg/ml. […] Mean survival in NVX-207 treated fibroblasts at 80% confluency was 92% (S.E.=3.8) versus 3.8% mean survival (S.E.=0.4) at 30% confluency. […] Under normal physiological conditions, the endothelium, as well as skin fibroblasts and skin keratinocytes, show relatively low turn-over and limited cell divisions to maintain tissue integrity.
(§3) Keratinocytes at high confluence (e.g., 80%) mimic normal physiological conditions in which these cells divide more slowly (fewer cell divisions per unit of time). In contrast, keratinocytes in psoriatic lesions divide more rapidly, as do keratinocytes cultured at lower confluency (e.g., 30%). Thus, the 30% confluency conditions were considered a model for psoriasis whereas the behavior of 80% confluent cells more closely reflects the conditions observed in normal skin.

518A2 = assay: Cell growth/survival, 518A2 melanoma cells; assay type: cell-based; details: Homo sapiens, TP53 mut.
Protocol: (§4) Melanoma cell lines used in this study were maintained in Dulbecco's modified Eagle medium (DMEM with 4500 mg/l glucose) supplemented with 10% FCS from Gibco BRL (Life Technologies, Berlin, Germany). The canine mastocytoma cell line C2 (DeVinney et al, Am. J. Respir. Cell Mol. Biol. 3:413-20, 1990) was used in this study, along with additional human cell lines: RD-ES and TC-71 (human Ewing's sarcoma), SAOS2 (human osteosarcoma), HT-1080 (human fibrosarcoma), Caco-2 (human colon adenocarcinoma), A549 (human lung adenocarcinoma), Hep-G2 and Hep-3B (human hepatocellular carcinoma), SK-N-DZ and SK-N-FI (human embryonal neuroblastoma), HTB9 (human bladder cancer), MDA-468 and MCF-7 (human breast cancer) and SW872 liposarcoma. All breast cancer cells were routinely cultured in DMEM/F-12 or in DMEM alone supplemented with 10% FCS at 37° C. in a humidified 5% CO2 atmosphere. RD-ES and TC-71 sarcoma cell lines were maintained in RPMI 1640 (Biochrom KG, Berlin, Germany) containing 10% FCS at 37° C. in a humidified 5% CO2 atmosphere. […]
(§5) Briefly, cells were maintained in standard medium, harvested, and plated at equal densities (750,000 cells in 5 cm tissue culture dishes). […] For the assessment of cell growth, the number of surviving cells was determined using an automated cell counter from Beckman Coulter GmbH (Krefeld, Germany). […]

human fibroblasts = assay: Survival of fibroblasts at 80% and 30% confluency; assay type: cell-based; details: 2.5 μM; for Mean survival, percentage of control-treated cells: fibroblasts, n=3
Protocol: as §1, §2, §3

Hep-3B = assay: Cell growth/survival, Hep-3B hepatocellular carcinoma cells; assay type: cell-based; details: Homo sapiens, Hep3B, TP53 null
Protocol: as §4, §5

Mastocytoma-C2 = assay: Cell growth/survival, canine mastocytoma C2 cells; assay type: cell-based; details: Canis lupus familiaris
Protocol: as §4, §5

TC-71 (Ewing's sarcoma) = assay: Cell growth/survival, TC-71 Ewing's sarcoma cells; assay type: cell-based; details: Homo sapiens, TP53 mut.
Protocol: as §4, §5

[2] = system: canine lesion clinically diagnosed as basal cell carcinoma; assay: Topical treatment of canine basal cell carcinoma; assay type: in vivo, dog
From the text: A 1% topical solution of NVX-207 in 20% ethanol, 20% Tween® 80 was applied to an exophytically growing slightly bleeding (on contact) tumor on the nose of a dog using a NVX-207 soaked cotton swab every second to third day for 7 weeks.

RD-ES (Ewing's sarcoma) = assay: Cell growth/survival, RD-ES Ewing's sarcoma cells; assay type: cell-based; details: Homo sapiens, TP53 mut.
Protocol: as §4, §5

human keratinocytes = assay: Survival / anti-proliferative activity in keratinocytes; assay type: cell-based; details: for Mean survival, percentage of control-treated cells: n=3
Protocol: as §1, §2, §3

SMILES: C=C(C)[C@@H]1CC[C@]2(C(=O)OCC(N)(CO)CO)CC[C@]3(C)[C@H](CC[C@@H]4[C@@]5(C)CC[C@H](OC(C)=O)C(C)(C)[C@@H]5CC[C@]43C)[C@@H]12 [NVX-207, 3-O-acetylbetulinic acid-2-amino-3-hydroxy-2-hydroxymethylpropyl ester]
- Mean survival, percentage of control-treated cells ([1]; 30% confluency): 18.3%
- Mean survival, percentage of control-treated cells ([1]; 80% confluency): 90.3%
- More effective at 30% confluency compared to 80% confluency ([1]; endothelial cells): ~5 fold
- IC50 (518A2): 2.6 µM
- Mean survival, percentage of control-treated cells (human fibroblasts; 30% confluency): 3.8%
- Mean survival, percentage of control-treated cells (human fibroblasts; 80% confluency): 92%
- More active against proliferating cells (30% vs 80% confluency) (human fibroblasts; human fibroblasts): over 20 fold
- IC50 (Hep-3B): 3.8 µM
- IC50 (Mastocytoma-C2): 3 µM
- IC50 (TC-71 (Ewing's sarcoma)): 5.5 µM
- Reduction of tumor ([2]; 1% topical solution in 20% ethanol, 20% Tween 80 every second to third day, after 3 weeks): about 90%
- Inflammation during treatment ([2]; topical): absence of inflammation
- IC50 (RD-ES (Ewing's sarcoma)): 5.3 µM
- IC50 (human keratinocytes; Homo sapiens, Keratinocyte): ~0.7 mg/L (≈ 1.16 µM)
- IC50 lower compared to betulinic acid on a molar basis (human keratinocytes; human keratinocytes): ~10 fold
- More active against proliferating cells (30% vs 80% confluency) (human keratinocytes; keratinocytes, 2.5 μM): ~6 fold
- Mean survival, percentage of control-treated cells (human keratinocytes; keratinocytes, 30% confluency, 2.5 μM): 17%
- Mean survival, percentage of control-treated cells (human keratinocytes; keratinocytes, 80% confluency, 2.5 μM): 92.7%

— patent US20150306110A1, “COMPOSITIONS AND METHODS FOR TREATMENT OF INFLAMMATION AND HYPERKERATOTIC LESIONS” (Novelix Pharmaceuticals, Inc., priority 2008, published 2015)
